Patent publication EP4786485A1, “STRAIGHT CHAIN PEPTIDE COMPOUND AND USE THEREOF” (Shenzhen Zhongge Biological Technology Co., Ltd., priority 2023, dated 2026)
Where a SMILES comes first, the peptide text is derived from it. [ ]: non-standard residue; d: D form. The star is where a group is joined. Biotin = O=C1N[C@H]2[C@H](CS[C@H]2CCCCC(=O)*)N1; Lys(Me3) = C[N+](C)(C)CCCC[C@H](N)C(=O)O; Palmitoyl = CCCCCCCCCCCCCCCC(=O)*; Ahp = NCCCCCCC(=O)O; βAla = NCCC(=O)O

Experiments:
Format in all cases: cell-based, Human
Elastin (ELN) = test: ELISA: effect of increasing the content of Elastin in fibroblasts; parameters: Effect of increasing the content of Elastin in the fibroblasts: unit not given here; details: 1 µM; for Effect of increasing the content of Elastin in the fibroblasts: 24 h incubation, ELISA, blank control (BC) 756.52; for increase in the content of Elastin: in words, compared to the BC, 24 h, fibroblasts
Method: (§1) B. Effects of increasing the contents of Collagen I (type I collagen), hyaluronic acid (HA), and Elastin (ELN) in fibroblasts
(§2) Test materials: Human-derived fibroblasts (Guangdong BioCell Biotechnology Co., Ltd., Lot No. Fb20081902), DMEM culture medium (Gibco, 23042301, expiration date 230522), PBS (Solarbio, P1010), TGF-β1 (Peprotech, 230504), Collagen I ELISA Kit (Cusabio, B21025824), Elastin ELISA Kit (Abcam, GR3446070-2), HA ELISA Kit (RD, P325066), CO2 incubator (Thermo, 150I), super-clean bench (AIRTECH, SW-CJ-1F), and microplate reader (BioTek, Epoch).
(§3) Test methods: • 1) Inoculation: After cell resuscitation, the cells were inoculated into 6-well plates when the plating rate reached around 60%, and were incubated overnight in an incubator (37°C, 5% CO2). • 2) Formulation of solutions: The linear peptide compounds in the sample groups, and PC2 (Biotinoyl-GHK, [drawing 69] ) and PC3 ( [drawing 70] ) in the positive control group were all at the concentration of 1 µM, and the test substance working solutions were formulated. • 3) Administration: When the cell plating rate in the 6-well plates reached 40% to 60%, administration was performed at 2 mL per well. Three duplicate wells were set for each group. Incubation was performed in an incubator (37°C, 5% CO2) for 24 h. • 4) ELISA assay: The ELISA assays were performed according to the instructions of the respective ELISA kits, with the detection indicators being effect of increasing the content of Collagen I in the fibroblasts, effect of increasing the content of HA in the fibroblasts, and effect of increasing the content of Elastin in the fibroblasts, respectively.

[1] = tested on: Collagen I (type I collagen); test: ELISA: effect of increasing the content of Collagen I in fibroblasts; parameters: Effect of increasing the content of Collagen I in the fibroblasts: unit not given here; details: 1 µM, 24 h; for Effect of increasing the content of Collagen I in the fibroblasts: human-derived fibroblasts, ELISA, blank control BC = 35.6; for increase in the content of type I collagen (Collagen I): in words, compared to the BC, fibroblasts
Method: as §1, §2, §3

hyaluronic acid (HA) = test: ELISA: effect of increasing the content of HA in fibroblasts; parameters: Effect of increasing the content of HA in the fibroblasts: unit not given here; details: 1 µM, 24 h; for Effect of increasing the content of HA in the fibroblasts: human-derived fibroblasts, ELISA, blank control BC = 1402.44; for increase in the content of hyaluronic acid (HA): in words, compared to the BC, fibroblasts
Method: as §1, §2, §3

SMILES | Effect of increasing the content of Elastin in the fibroblasts (Elastin (ELN)) | increase in the content of Elastin (Elastin (ELN)) | Effect of increasing the content of Collagen I in the fibroblasts [1] | increase in the content of type I collagen (Collagen I) [1] | Effect of increasing the content of HA in the fibroblasts (hyaluronic acid (HA)) | increase in the content of hyaluronic acid (HA) (hyaluronic acid (HA))
CNC(=O)[C@H](CCCCN)NC(=O)[C@H](Cc1c[nH]cn1)NC(=O)CNC(=O)CCCCCCNC(=O)[C@H](CCCCN)NC(=O)[C@H](Cc1c[nH]cn1)NC(=O)CNC(C)=O [compound 6] (Ac-GHK[Ahp]GHK-NHMe) | 1070.92 | significant increase | 44.54 | significant increase | – | –
CNC(=O)[C@H](CCCCN)NC(=O)[C@H](Cc1c[nH]cn1)NC(=O)CNC(=O)CCNC(=O)CCNC(=O)[C@H](CCCCN)NC(=O)[C@H](Cc1c[nH]cn1)NC(=O)CNC(C)=O [compound 21] (Ac-GHK[βAla][βAla]GHK-NHMe) | 1160.14 | significant increase | – | – | 2423.11 | significant increase
CNC(=O)[C@H](CCCCN)NC(=O)[C@H](Cc1c[nH]cn1)NC(=O)CNC(=O)[C@H](C)NC(=O)[C@H](C)NC(=O)[C@H](C)NC(=O)[C@H](CCCCN)NC(=O)[C@H](Cc1c[nH]cn1)NC(=O)CNC(C)=O [compound 23] (Ac-GHKAAAGHK-NHMe) | 1097.64 | significant increase | 46.06 | significant increase | 2533.64 | significant increase
CNC(=O)CNC(=O)[C@H](Cc1c[nH]cn1)NC(=O)[C@H](CCCCN)NC(=O)CCNC(=O)CCNC(C)=O [compound 76] (Ac-[βAla][βAla]KHG-NHMe) | 1061.55 | significant increase | 47.05 | significant increase | 2607.31 | significant increase
CNC(=O)CNC(=O)[C@H](Cc1c[nH]cn1)NC(=O)[C@H](CCCCN)NC(=O)CCCCCCNC(C)=O [compound 77] (Ac-[Ahp]KHG-NHMe) | 1093.49 | significant increase | 89.94 | significant increase | 3493 | significant increase
CCCCCCCCCCCCCCCC(=O)NCCCCCCC(=O)N[C@@H](CCCCN)C(=O)N[C@@H](Cc1c[nH]cn1)C(=O)NCC(=O)O [compound 224] ({Palmitoyl-Ahp}-Lys-His-Gly-OH) | 932.65 | significant increase | 56.19 | significant increase | – | –
CCCCCCCCCCCCCCCC(=O)N[C@@H](CCCC[N+](C)(C)C)C(=O)N[C@@H](C)C(=O)N[C@@H](C)C(=O)N[C@@H](C)C(=O)NCC(=O)N[C@@H](Cc1c[nH]cn1)C(=O)N[C@@H](CCCCN)C(=O)O [compound 234] (Palmitoyl-[Lys(Me3)]AAAGHK-OH) | 900.83 | significant increase | 49.53 | significant increase | 2356.91 | significant increase
NCCCC[C@H](NC(=O)CCCCCCNC(=O)CCCC[C@@H]1SC[C@@H]2NC(=O)N[C@@H]21)C(=O)N[C@@H](Cc1c[nH]cn1)C(=O)NCC(N)=O [compound 242] ({Biotin-Ahp}-Lys-His-Gly-NH2) | 1159.72 | significant increase | 70.24 | significant increase | – | –
